From patent US20230081426A1, “COMPOUNDS AND METHODS FOR KRAS MODULATION AND INDICATIONS THEREFOR” (Plexxikon Inc., priority 2020, published 2023)

Tests used:
[1] = molecular target: T1, G12D-mutant human KRAS (amino acid residues 1-188) (Homo sapiens, UniProt P01116, G12D); assay: KRAS Binding Disruption Assay (AlphaScreen; biotinylated KRpep-2d analogue or RAF1-RBD), G12D; conditions: KRAS G12D; geometric mean; read-out: KRAS GMean IC50 (uM) MUTATION: G12D
T1 construct: G12D or G12C-mutant human KRAS (amino acid residues 1-188) with FLAG tag; made in house; host or cells: E. coli
How it was run: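 Compounds are titrated against 5-20 nM mutant KRAS and 5-20 nM of either a biotinylated KRpep-2d analogue or RAF1-RBD, incubated 1 h at 25° C. Disruption is detected as reduced Alpha signal after 1 h with donor and acceptor beads at 10 μg/mL.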

[2] = molecular target: T2, G12V-mutant human KRAS (amino acid residues 1-188) (Homo sapiens, UniProt P01116, G12V); assay: KRAS Binding Competition Assay (AlphaScreen; biotinylated KRpep-2d analogue), G12V; conditions: geometric mean, read-out: KRAS GMean IC50 (uM) MUTATION: G12V
T2 construct: G12V-mutant human KRAS (amino acid residues 1-188) with FLAG tag was purified from E. coli; made in house; host or cells: E. coli

IC50 [1] [µM]	IC50 [2] [µM]	SMILES
0.0001 to 10	10 to 100	CN1CCC[C@H]1COc1nc(N2C[C@H]3CC[C@@H](C2)N3)c2cc(F)c(N3CCNc4ccccc43)c(F)c2n1 [P-0305, 4-((1R,5S)-3,8-diazabicyclo[3.2.1]octan-3-yl)-7-(3,4-dihydroquinoxalin-1(2H)-yl)-6,8-difluoro-2-(((S)-1-methylpyrrolidin-2-yl)methoxy)quinazoline]
0.0001 to 10	10 to 100	CN1CCC[C@H]1COc1nc(N2C[C@H]3CC[C@@H](C2)N3)c2cc(F)c(-c3c[nH]c4ccccc34)c(F)c2n1 [P-0308, 4-((1R,5S)-3,8-diazabicyclo[3.2.1]octan-3-yl)-6,8-difluoro-7-(1H-indol-3-yl)-2-(((S)-1-methylpyrrolidin-2-yl)methoxy)quinazoline]
10 to 100	10 to 100	CN1CCC[C@H]1COc1nc(N2C[C@H]3CC[C@@H](C2)N3)c2cc(F)c(-c3c[nH]c4cccc(Cl)c34)c(F)c2n1 [P-0309, 4-((1R,5S)-3,8-diazabicyclo[3.2.1]octan-3-yl)-7-(4-chloro-1H-indol-3-yl)-6,8-difluoro-2-(((S)-1-methylpyrrolidin-2-yl)methoxy)quinazoline]
0.0001 to 10	10 to 100	CN1CCC[C@H]1COc1nc(N2C[C@H]3CC[C@@H](C2)N3)c2cc(F)c(-c3c[nH]c4ccc(Cl)cc34)c(F)c2n1 [P-0310, 4-((1R,5S)-3,8-diazabicyclo[3.2.1]octan-3-yl)-7-(5-chloro-1H-indol-3-yl)-6,8-difluoro-2-(((S)-1-methylpyrrolidin-2-yl)methoxy)quinazoline]
10 to 100	100 to 1000	COc1ccc2[nH]cc(-c3ccc4c(N5C[C@H]6CC[C@@H](C5)N6)nc(OC[C@@H]5CCCN5C)nc4c3F)c2c1 [P-0314, 4-((1R,5S)-3,8-diazabicyclo[3.2.1]octan-3-yl)-8-fluoro-7-(5-methoxy-1H-indol-3-yl)-2-(((S)-1-methylpyrrolidin-2-yl)methoxy)quinazoline]
0.0001 to 10	10 to 100	CN1CCC[C@H]1COc1nc(N2C[C@H]3CC[C@@H](C2)N3)c2cc(Cl)c(-c3c[nH]c4ccccc34)c(F)c2n1 [P-0318, 4-((1R,5S)-3,8-diazabicyclo[3.2.1]octan-3-yl)-6-chloro-8-fluoro-7-(1H-indol-3-yl)-2-(((S)-1-methylpyrrolidin-2-yl)methoxy)quinazoline]
0.0001 to 10	10 to 100	COc1ccc2[nH]cc(-c3c(Cl)cc4c(N5C[C@H]6CC[C@@H](C5)N6)nc(OC[C@@H]5CCCN5C)nc4c3F)c2c1 [P-0319, 4-((1R,5S)-3,8-diazabicyclo[3.2.1]octan-3-yl)-6-chloro-8-fluoro-7-(5-methoxy-1H-indol-3-yl)-2-(((S)-1-methylpyrrolidin-2-yl)methoxy)quinazoline]
0.0001 to 10	10 to 100	CN1CCC[C@H]1COc1nc(N2C[C@H]3CC[C@@H](C2)N3)c2cc(Cl)c(-c3c[nH]c4ccc(Cl)cc34)c(F)c2n1 [P-0323, 4-((1R,5S)-3,8-diazabicyclo[3.2.1]octan-3-yl)-6-chloro-7-(5-chloro-1H-indol-3-yl)-8-fluoro-2-(((S)-1-methylpyrrolidin-2-yl)methoxy)quinazoline]
0.0001 to 10	0.0001 to 10	CN(C)c1ccc(CCc2nc(N3C[C@H]4CC[C@@H](C3)N4)c3cc(Cl)c(-c4c(O)cccc4F)c(F)c3n2)cc1 [P-0326, 2-(4-((1R,5S)-3,8-diazabicyclo[3.2.1]octan-3-yl)-6-chloro-2-(4-(dimethylamino)phenethyl)-8-fluoroquinazolin-7-yl)-3-fluorophenol]
0.0001 to 10	10 to 100	CN1CCC(Oc2nc(N3C[C@H]4CC[C@@H](C3)N4)c3cc(Cl)c(-c4c(O)cccc4F)c(F)c3n2)CC1 [P-0329, 2-(4-((1R,5S)-3,8-diazabicyclo[3.2.1]octan-3-yl)-6-chloro-8-fluoro-2-((1-methylpiperidin-4-yl)oxy)quinazolin-7-yl)-3-fluorophenol]

The remaining lines, values behind:

SMILES	IC50 [1] [µM]	IC50 [2] [µM]
CN1CCC[C@H]1COc1nc(N2C[C@H]3CC[C@@H](C2)N3)c2ccc(N3CCNc4ccccc43)c(F)c2n1 [P-0306, 4-((1R,5S)-3,8-diazabicyclo[3.2.1]octan-3-yl)-7-(3,4-dihydroquinoxalin-1(2H)-yl)-8-fluoro-2-(((S)-1-methylpyrrolidin-2-yl)methoxy)quinazoline]	0.0001 to 10	10 to 100
CN1CCC[C@H]1COc1nc(N2C[C@H]3CC[C@@H](C2)N3)c2ccc(N3CC(O)Cc4ccccc43)c(F)c2n1 (stereo partly drawn) [P-0307, 1-(4-((1R,5S)-3,8-diazabicyclo[3.2.1]octan-3-yl)-8-fluoro-2-(((S)-1-methylpyrrolidin-2-yl)methoxy)quinazolin-7-yl)-1,2,3,4-tetrahydroquinolin-3-ol]	0.0001 to 10	10 to 100
CN1CCC[C@H]1COc1nc(N2[C@@H]3CC[C@H]2CN(C(=O)CC(C)(C)O)C3)c2ccc(-c3cc(O)cc4ccccc34)cc2n1 [P-0311, 3-hydroxy-1-((1R,5S)-8-(7-(3-hydroxynaphthalen-1-yl)-2-(((S)-1-methylpyrrolidin-2-yl)methoxy)quinazolin-4-yl)-3,8-diazabicyclo[3.2.1]octan-3-yl)-3-methylbutan-1-one]	10 to 100	10 to 100
CN1CCC[C@H]1COc1nc(N2[C@@H]3CC[C@H]2CN(C(=O)Cc2n[nH]c4ccccc24)C3)c2ccc(-c3cc(O)cc4ccccc34)cc2n1 [P-0312, 1-((1R,5S)-8-(7-(3-hydroxynaphthalen-1-yl)-2-(((S)-1-methylpyrrolidin-2-yl)methoxy)quinazolin-4-yl)-3,8-diazabicyclo[3.2.1]octan-3-yl)-2-(1H-indazol-3-yl)ethan-1-one]	10 to 100	10 to 100
CN1CCC[C@H]1COc1nc(N2C[C@H]3CC[C@@H](C2)N3)c2ccc(-c3c[nH]c4ccc(C#N)cc34)c(F)c2n1 [P-0313, 3-(4-((1R,5S)-3,8-diazabicyclo[3.2.1]octan-3-yl)-8-fluoro-2-(((S)-1-methylpyrrolidin-2-yl)methoxy)quinazolin-7-yl)-1H-indole-5-carbonitrile]	10 to 100	100 to 1000
CN1CCC[C@H]1COc1nc(N2[C@@H]3CC[C@H]2CN(C(=O)CS(N)(=O)=O)C3)c2ccc(-c3cc(O)cc4ccccc34)cc2n1 [P-0315, 2-((1R,5S)-8-(7-(3-hydroxynaphthalen-1-yl)-2-(((S)-1-methylpyrrolidin-2-yl)methoxy)quinazolin-4-yl)-3,8-diazabicyclo[3.2.1]octan-3-yl)-2-oxoethane-1-sulfonamide]	10 to 100	10 to 100
CN1CCC[C@H]1COc1nc(N2[C@@H]3CC[C@H]2CN(C(=O)CNS(N)(=O)=O)C3)c2ccc(-c3cc(O)cc4ccccc34)cc2n1 [P-0316, N-(2-((1R,5S)-8-(7-(3-hydroxynaphthalen-1-yl)-2-(((S)-1-methylpyrrolidin-2-yl)methoxy)quinazolin-4-yl)-3,8-diazabicyclo[3.2.1]octan-3-yl)-2-oxoethyl)aminosulfonamide]	10 to 100	10 to 100
CN1CCC[C@H]1COc1nc(N2[C@@H]3CC[C@H]2CN(C(=O)CNC(N)=O)C3)c2ccc(-c3cc(O)cc4ccccc34)cc2n1 [P-0317, 1-(2-((1R,5S)-8-(7-(3-hydroxynaphthalen-1-yl)-2-(((S)-1-methylpyrrolidin-2-yl)methoxy)quinazolin-4-yl)-3,8-diazabicyclo[3.2.1]octan-3-yl)-2-oxoethyl)urea]	10 to 100	10 to 100
CN(C)c1cccc(COc2nc(N3[C@@H]4CC[C@H]3CNC4)c3ccc(-c4cc(O)cc5ccccc45)cc3n2)c1 [P-0320, 4-(4-((1R,5S)-3,8-diazabicyclo[3.2.1]octan-8-yl)-2-((3-(dimethylamino)benzyl)oxy)quinaz-olin-7-yl)naphthalen-2-ol]	0.0001 to 10	0.0001 to 10
Oc1cc(-c2ccc3c(N4[C@@H]5CC[C@H]4CNC5)nc(Oc4cccnc4)nc3c2)c2ccccc2c1 [P-0321, 4-(4-((1R,5S)-3,8-diazabicyclo[3.2.1]octan-8-yl)-2-(pyridin-3-yloxy)quinazolin-7-yl)naphthalen-2-ol]	10 to 100	10 to 100
Oc1cc(-c2ccc3c(N4[C@@H]5CC[C@H]4CNC5)nc(Nc4cccnc4)nc3c2)c2ccccc2c1 [P-0322, 4-(4-((1R,5S)-3,8-diazabicyclo[3.2.1]octan-8-yl)-2-(pyridin-3-ylamino)quinazolin-7-yl)naphthalen-2-ol]	10 to 100	10 to 100
CN1CCC[C@H]1COc1nc(N2[C@@H]3CC[C@H]2CN(C(=O)CC(=O)O)C3)c2ccc(-c3cc(O)cc4ccccc34)cc2n1 [P-0324, 3-((1R,5S)-8-(7-(3-hydroxynaphthalen-1-yl)-2-(((S)-1-methylpyrrolidin-2-yl)methoxy)quinazolin-4-yl)-3,8-diazabicyclo[3.2.1]octan-3-yl)-3-oxopropanoic acid]	100 to 1000	10 to 100
CN1CCC[C@H]1COc1nc(N2[C@@H]3CC[C@H]2CN(C(=O)CC#N)C3)c2ccc(-c3cc(O)cc4ccccc34)cc2n1 [P-0325, 3-((1R,5S)-8-(7-(3-hydroxynaphthalen-1-yl)-2-(((S)-1-methylpyrrolidin-2-yl)methoxy)quinazolin-4-yl)-3,8-diazabicyclo[3.2.1]octan-3-yl)-3-oxopropanenitrile]	10 to 100	0.0001 to 10
CN1CCC[C@H]1COc1nc(N2CC3CCC2CN3)c2ccc(-c3cc(O)cc4ccccc34)c(F)c2n1 (stereo partly drawn) [P-0327, 4-(4-(2,5-diazabicyclo[2.2.2]octan-2-yl)-8-fluoro-2-(((S)-1-methylpyrrolidin-2-yl)methoxy)quinazolin-7-yl)naphthalen-2-ol]	0.0001 to 10	10 to 100
